According to US10251392B2, “Antimicrobial devices and compositions” (Avent, Inc., priority 2004, dated 2019):

Assay: Light stability (discoloration by light exposure)
Type: physicochemical
Conditions: ambient / room light
Protocol: The term “light stable” in the present context is meant to indicate either of two conditions; (i) no visible change in the color of the compositions of patient and wound care products after 24 hour exposure to light conditions typically encountered indoors in hospital, offices, or home that are normally used to aid visibility.

SMILES: [Ag+].c1ccc2[n-]cnc2c1 [silver benzimidazole complex]
- light sensitivity of the solid powder: remained unchanged
